For this experiment, the system named is MCF-7 tumour cells. It is filed as cell-based, human. The conditions noted are these: MCF-7, 50 nM, 48 h exposure; cells larger in size, characteristic of G2-M arrest.

Each structure is given as a SMILES string.

The results in this text go back to publication PMC3685178 (Chemical communications (Cambridge, England), 2013).

For the compound `CC(=O)O[C@H]1C(=O)[C@@]2(C)[C@H]([C@H](OC(=O)c3ccccc3)[C@]3(O)C[C@H](OC(=O)[C@H](O)[C@@H](NC(=O)c4ccccc4)c4ccccc4)C(C)=C1C3(C)C)[C@]1(OC(C)=O)CO[C@@H]1C[C@@H]2O` [PTX, paclitaxel], the “cell populations in live/dead assay” value is recorded as “significantly reduced”.
